According to article PMC12040169 (PLOS Biology, 2025):

Assay: in vitro
Details: human, hela cells, % viability

Structure (SMILES) | viability at 28.5 h, 10 µM | viability at 28.5 h, 10 µM (bulk resorufin, single well)
NS(=O)(=O)c1ccc(NS(=O)(=O)c2ccc(NC(=O)Nc3ccc(Cl)cc3)cc2)cc1 [CBK264902] | 90.9% | –
Cc1c(C(=O)O)c2cc(O)ccc2n1-c1ccccc1 [CBK115329] | 103% | –
Cn1cc(NC(=O)C2CCCN(c3ncccn3)C2)cn1 (stereo not drawn) [CBK304394] | 108% | –
O=C1c2ccccc2CN1c1nccs1 [CBK113184] | 84.8% | –
COc1ccc2[nH]c3c(c2c1)CCN[C@]31CCN(CCOc2ccc(F)cc2)C1 [CBK089876T] | 73.6% | –
O=C(O)[C@H]1Nc2ccc(Br)cc2[C@H]2[C@H](O)[C@H](O)C[C@H]21 [CBK303242] | 115% | –
CCn1ncc(S(=O)(=O)N2CCCC(c3ccccc3)C2)c1C (stereo not drawn) [CBK282760] | 100% | –
O=C(C1CCCC1)N1CCC(n2c(=O)oc3ccccc32)CC1 [CBK284349] | 83.7% | –
CCN1C(=O)/C(=C\c2ccc(-c3cccc(C(=O)O)c3C)o2)C(=O)N(c2ccc(Cl)cc2)C1=S [CBK265270] | – | 99.9%
Cc1ccc2c(c1)c(NC(=O)OC(C)C)nn2Cc1cc2c(cc1Cl)OCO2 [CBK048652] | 99.9% | –
CC(C)N(C(=O)CN1C(=O)N2CCN=C2c2ccccc21)C(C)C [CBK284005] | 87% | –
O=C(CN1C(=O)c2ccccc2C1=O)Nc1cccc(-c2cnc3ccccc3n2)c1 [CBK268614] | 115% | –
COc1cncc(C(NC(=O)c2ccc3[nH]nnc3c2)[C@H]2C[C@@H](O)C2)c1 (stereo partly drawn) [CBK307049] | 108% | –
O=C(O)c1ccc(Nc2ncnc3c2cnn3Cc2ccccc2)cc1 [CBK263803] | 92.1% | –
Cc1ccccc1C(=O)N/N=C/c1ccc(Sc2nnnn2-c2ccccc2)o1 [CBK263259] | 114% | –
Cc1cccc(N=C(S)N(CCN(C)C)Cc2cc3cc(C)cc(C)c3nc2O)c1 [CBK135105] | 96.2% | –
FC(F)(F)c1ccnc(SCCc2ccncc2)n1 [CBK105302] | 95.3% | –
COc1ccccc1C(=O)N1CCC(C(=O)N(C)C(c2ccccc2)c2ncccc2C)CC1 (stereo not drawn) [CBK060531] | 75.4% | –
CC12CCC(C(=O)O)(c3nc4c(ccc5ncccc54)nc31)C2(C)C (stereo not drawn) [CBK269470] | 91.1% | –
COC(=O)c1ccc(N2CCN(C(C)c3nnc(C)o3)C(C)C2)cc1 (stereo not drawn) [CBK304926] | 108% | –
COc1ccc(C(C)C)cc1-c1cncc(N2CCC(C(=O)O)CC2)n1 [CBK037900] | 104% | –
O=c1c(C(F)(F)F)cccn1Cc1ccccc1 [CBK023620] | 107% | –
CN(C)CCNC(=O)c1ccc(-c2cnc3[nH]c(=O)n(CC4CC4)c3n2)cc1 [CBK064578] | 94.6% | –

Structure (SMILES) | viability at 28.5 h, 10 µM | viability at 28.5 h, 10 µM (bulk resorufin, single well)
Cc1nn(C)cc1-c1cncn1Cc1ccc2c(c1)CCCO2 [CBK281797] | 90.4% | –
COc1ccc2nc(-n3nc(C(=O)NCc4ccncc4)c4ccccc43)sc2c1 [CBK048521] | 94.9% | –
CN(C)C(=O)C1CN(C(=O)C(C)(C)c2ccccc2F)C1 [CBK281970] | 113% | –
O=C(Nc1ccc(Cl)c(Cl)c1)c1cnc2n(c1=O)CCS2 [CBK287381] | 108% | –
CC1CN(c2cc(CO)c(F)cn2)CC2(CCOC2)O1 (stereo not drawn) [CBK304772] | 93.8% | –
Cn1c(SCCOc2ccccc2Cl)nnc1-c1ccncc1 [CBK265969] | 111% | –
O=C(Nc1ccc(S(=O)(=O)N2CCCC2)cc1)c1ccc(COc2ccc3c(c2)CCC3)o1 [CBK265847] | 89.1% | –
Cc1ccc2nc(-c3ccccc3)c(CC(=O)O)c(C(=O)O)c2c1 [CBK265128] | 87.3% | –
CC(C)(C)C(=O)N1CCC2(CC1)Nc1cccnc1-n1cccc12 [CBK284507] | 95.6% | –
O=C(c1cc(-c2ccccc2)n[nH]c1=O)N1CCc2ccccc2C1 [CBK291216] | 91.2% | –
COc1cccc(Cn2c(=O)c3sccc3n(CC(=O)NCc3ccc(C)cc3)c2=O)c1 [CBK300533] | 80.8% | –
O=C(Nc1ccc(N2CCNCC2)nc1)C1CCC1 [CBK004743T] | 86.2% | –
COc1cc(C(=O)NN)cc(OC)n1 [CBK012275] | 83.7% | –
C[C@@H](Cn1nnc2ccccc21)NC(=O)c1cccs1 [CBK284322] | 82.3% | –
O=C(Nc1ccccc1)c1ccc(COc2ccc3ccccc3c2)o1 [CBK265897] | 113% | –
Cc1ccc(C2(CN3CCN(Cc4cnn(C)c4)CC3)CC2)cc1 [CBK282480] | 96.3% | –
Cc1cc(I)ccc1OCCCCN1CCN(C)CC1 [CBK269652C] | 91.3% | –
CCn1cc(-c2nc3cc(S(=O)(=O)NC(C)C)ccc3n2C(C)C)cn1 [CBK307311] | 98.7% | –
O=C(O)c1nsnc1C(=O)O [CBK278311K] | 114% | –
COc1ccc(S(=O)(=O)N(CC(=O)O)C2CCCCC2)cc1Cl [CBK267997] | 81.5% | –
Cc1c(CN(C)C(=O)c2ccc(COc3ccc(Cl)cc3)cc2)cnn1C [CBK265756] | 98.9% | –
CC(SCc1ccccc1)C(=O)NCc1ccnc(OCC(F)(F)F)c1 (stereo not drawn) [CBK298325] | 111% | –
O=C(Cc1ccccc1)Nc1nc(OCC(F)(F)F)cnc1-c1ccsc1 [CBK145298] | 102% | –

Structure (SMILES) | viability at 28.5 h, 10 µM | viability at 28.5 h, 10 µM (bulk resorufin, single well)
COc1ncc(-c2cncc(N3CCN(c4ccccc4C#N)CC3)n2)c(OC)n1 [CBK037872] | 105% | –
CCN1CCN(C(=O)c2ccc3ccccc3n2)CC1 [CBK200249] | 133% | –
Cc1cccc(C2NS(=O)(=O)NC2=N)c1 (stereo not drawn) [CBK263868] | 98.3% | –
CC(C)(C)C1CCC(OC(=O)CCC(=O)O)CC1 (stereo not drawn) [CBK026882] | 105% | –
COc1ccc(OCCCn2ccn(C(=O)CCCOc3ccc(Cl)cc3)c2=O)cc1 [CBK106662] | 94.3% | –
CCn1nccc1C(=O)N1CCC(c2cc3c(C)cccc3cn2)CC1 [CBK282234] | 92.4% | –
CCc1cccc2c(CC(=O)N(C)CCN(C)C)c(C)[nH]c12 [CBK282673] | 102% | –
CCn1c(C(O)c2ccccc2)n[nH]c1=S (stereo not drawn) [CBK015110] | 90.5% | –
CCOC(=O)C(NC(=O)CC)(Nc1cc(C)on1)C(F)(F)F (stereo not drawn) [CBK025721] | 117% | –
O=C(O)CC1S/C(=N/N=C/c2ccc(-c3ccc(Cl)cc3)o2)NC1=O (stereo not drawn) [CBK264595] | 125% | –
Cc1ccc(OCC(=O)NC(=S)Nc2cc(-c3nc4ncccc4o3)ccc2Cl)cc1 [CBK265214] | 103% | –
O=C(O)COCC(=O)NC12CC3CC(CC(C3)C1)C2 [CBK287065] | 97.9% | –
CCCC/C=C/c1nccnc1NCC1CC1 [CBK037268] | 100% | –
c1coc(COc2cncc(N3CCNCC3)n2)c1 [CBK013393] | 94.2% | –
O=C(O)COc1cccc2nsnc12 [CBK019749] | 95.1% | –
O=C(O)c1cccc(-c2cn3ccnc3c(N3CCOCC3)n2)c1 [CBK038053] | 84% | –
Fc1ccc(-n2cc(-c3cccnc3)nn2)cc1F [CBK113055] | 89.3% | –
NC(=O)c1c(NC(=S)NC(NC(=O)c2ccccc2)C(Cl)(Cl)Cl)sc2c1CCCC2 (stereo not drawn) [CBK261048] | 90.6% | –
O=C(c1cc2cc(Cl)ccc2[nH]1)N1CCN(c2ccccn2)CC1 [CBK107343] | 93.7% | –
CC1(C(=O)O)CC(C)(C(=O)O)CC(C)(C(=O)O)C1 (stereo not drawn) [CBK266107] | 91.8% | –
COc1ccc(S(=O)(=O)Nc2nccc(-c3ccc(CN4C(=O)CCC4=O)cc3)n2)cc1 [CBK067438] | 91.5% | –
COc1cc2c(cc1OC)CN(CC(N)=O)CC2 [CBK126391] | 86.8% | –
O=C(NCC1CCCCC1)C1(Cc2ccc(-c3cccnc3)cc2)CCOCC1 [CBK285591] | 92.6% | –

Structure (SMILES) | viability at 28.5 h, 10 µM | viability at 28.5 h, 10 µM (bulk resorufin, single well)
O=c1n(Cc2ccccc2F)nc2nnc(-c3ccccc3)c(-c3ccccc3)n12 [CBK286179] | 80.9% | –
COC(=O)c1c(NC(=O)C(Cc2ccccc2)N2C(=O)c3ccccc3C2=O)sc2c1CCC2 (stereo not drawn) [CBK265744] | 96.1% | –
O=C(NCc1cccs1)C1(Cc2cccc(-c3ccc(F)c(F)c3)c2)CCOCC1 [CBK285569] | 93.2% | –
COc1ncnc(C)c1-c1cc(C)c(OC)c(C)c1 [CBK306852] | 100% | –
COc1cc(C(C)=O)ccc1OCCCCN1CCOCC1 [CBK269713C] | 98.2% | –
CC1(CNC(=O)c2ccccc2Cn2cccn2)COC1 [CBK281750] | 89.4% | –
CN(Cc1nc(-c2ccccc2)no1)C(=O)C1CCOC1 (stereo not drawn) [CBK306755] | 107% | –
O=C(C1CN(Cc2nc3ccsc3c(=O)[nH]2)c2ccccc2O1)N1CCOCC1 (stereo not drawn) [CBK295189] | 109% | –
CCc1cc(-c2[nH]nc(C)c2Oc2ccc(C(C)C)cc2)c(O)cc1O [CBK264940] | 90.7% | –
OCCC1CCCCN1c1nccnc1-c1ccsc1 (stereo not drawn) [CBK037358] | 105% | –
CCCCN1CC(C(=O)OCC)=C(O)C1=O [CBK028774] | 110% | –
Cc1cc(C)nc(NC(=O)OCCc2cccnc2)c1 [CBK138234] | 95.1% | –
CCCC/C=C/c1cncc(N[C@H](CO)C(C)C)n1 [CBK065314] | 97% | –
O=C(NCCc1ccccc1)N(Cc1ccc(-c2ccccc2)cc1)CC1CCNCC1 [CBK049792] | 106% | –
Oc1cc(C(F)(F)F)nc(N2CCc3ccccc3C2)n1 [CBK000344] | 82% | –
Cc1ccc(S(=O)(=O)N=C2NCN(C)CN2)cc1 [CBK261972] | 94.3% | –
Cc1ccc(F)c(OC2(C(=O)O)CCN(Cc3cnc(C)nc3)CC2)c1 [CBK306860] | 100% | –
COc1ccc(CNC(=O)CN2C(=O)[C@@H]3CCCN3C(=O)c3ccccc32)cc1 [CBK286322] | 89.7% | –
Cc1csc(C(Cc2cccs2)NC(=O)C2CCOC2)n1 (stereo not drawn) [CBK285123] | 106% | –
CN(C)CCNc1nc(-c2cccnc2)nc2ccccc12 [CBK264471C] | 99.7% | –
CC(C)(C)c1cc(C(=O)N2CCN(c3ncccn3)CC2)n(Cc2ccc(Cl)cc2Cl)n1 [CBK107294] | 105% | –
